Results as given in ChEMBL document CHEMBL1201862, “PubChem BioAssay data set” (2004).
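A five-concentration, 48-hour dose response in 96-well plates underlies each endpoint, interpolated linearly between surrounding concentrations. GI50: concentration for 50% inhibition of growth.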 The source made the active and inactive calls. Rule as the data show it: active = GI50 up to about 1.1 µM and inactive = higher.

Tests used:
Assay in all cases: NCI anticancer screen, dose series, 48 h
[1] = tested on: 786-0
[2] = tested on: A549
[3] = tested on: CAKI-1
[4] = tested on: EKVX
[5] = tested on: HCT-116
[6] = tested on: HOP-62
[7] = tested on: K562
[8] = tested on: KM12
[9] = tested on: LOX IMVI
[10] = tested on: M14
[11] = tested on: OVCAR-4
[12] = tested on: SF-295
[13] = tested on: SN12C
[14] = tested on: SNB-19
[15] = tested on: SNB-75
[16] = tested on: T47D
[17] = tested on: UO-31
[18] = tested on: CCRF-CEM

Row | Compound | GI50 [1] | GI50 [2] | GI50 [3] | GI50 [4] | GI50 [5] | GI50 [6] | GI50 [7] | GI50 [8] | GI50 [9] | GI50 [10] | GI50 [11] | GI50 [12] | GI50 [13] | GI50 [14] | GI50 [15] | GI50 [16] | GI50 [17] | GI50 [18]
1 | C[C@]12CC/C(=N\O)C=C1CC[C@@H]1[C@@H]2CC[C@]2(C)C(=N/O)/C(=C/c3ccncc3)C[C@@H]12 | 24.7 µM (inactive) | 11.1 µM (inactive) | 24.2 µM (inactive) | 25.7 µM (inactive) | 10 µM (inactive) | 41.2 µM (inactive) | 26.4 µM (inactive) | 17.3 µM (inactive) | 20 µM (inactive) | 13.5 µM (inactive) | 31.9 µM (inactive) | 31.3 µM (inactive) | 17.3 µM (inactive) | 28.8 µM (inactive) | 25.5 µM (inactive) | 19.7 µM (inactive) | 3.62 µM (inactive) | 
2 | CC(C)CCNC(=O)c1ccc(CNC(=O)/C=C/c2ccc(-c3ccccc3[N+](=O)[O-])o2)cc1 | 28.6 µM (inactive) | 68.2 µM (inactive) | 46.3 µM (inactive) |  | 34.2 µM (inactive) | 24.3 µM (inactive) | 82.6 µM (inactive) | 32.5 µM (inactive) | > 100 µM (inactive) | > 100 µM (inactive) | 14.4 µM (inactive) | 42.7 µM (inactive) | > 100 µM (inactive) | 22.7 µM (inactive) | 25 µM (inactive) | 12.2 µM (inactive) | 76.7 µM (inactive) | 12.2 µM (inactive)
3 | CC(=O)N1C(Nc2ccccc2)CCN1c1ccccc1 (stereo not given) | > 10 µM (inactive) | > 10 µM (inactive) | 8.73 µM (inactive) | > 10 µM (inactive) | > 10 µM (inactive) | > 10 µM (inactive) | 4.04 µM (inactive) |  | > 10 µM (inactive) | > 10 µM (inactive) | > 10 µM (inactive) | 3.96 µM (inactive) | > 10 µM (inactive) | > 10 µM (inactive) | > 10 µM (inactive) | > 10 µM (inactive) | 4.45 µM (inactive) | > 10 µM (inactive)
4 | CC1(N2CCOCC2)CC2C(=[N+]1[O-])CCC/C2=N/O (stereo not given) | > 100 µM (inactive) | > 100 µM (inactive) | > 100 µM (inactive) | > 100 µM (inactive) | > 100 µM (inactive) | > 100 µM (inactive) | > 100 µM (inactive) | > 100 µM (inactive) | > 100 µM (inactive) | > 100 µM (inactive) | > 100 µM (inactive) | > 100 µM (inactive) | > 100 µM (inactive) | > 100 µM (inactive) | 0.334 µM (active) | > 100 µM (inactive) | > 100 µM (inactive) | > 100 µM (inactive)
5 | Cc1cc(S(=O)(=O)Nc2nc3cc(-c4ccc(Cl)cc4)sc3c(=O)n2N)c(S)cc1Cl | 45.9 µM (inactive) | > 100 µM (inactive) | > 100 µM (inactive) | 82.8 µM (inactive) | 40.3 µM (inactive) | 36.3 µM (inactive) | 32.7 µM (inactive) | 34.2 µM (inactive) | 45.4 µM (inactive) | > 100 µM (inactive) | 64.4 µM (inactive) | 33.3 µM (inactive) | 50.6 µM (inactive) | 80.2 µM (inactive) | > 100 µM (inactive) | 31.3 µM (inactive) | 44.4 µM (inactive) | 27.2 µM (inactive)
6 | COC/C=C\[C@@]1(O)CCCC[C@@H]1CC(OC)OC | 30 µM (inactive) | 68.7 µM (inactive) | > 100 µM (inactive) | > 100 µM (inactive) | 22.7 µM (inactive) | 36.2 µM (inactive) | 11.9 µM (inactive) | 31 µM (inactive) | 7.03 µM (inactive) | 46.7 µM (inactive) | 31.8 µM (inactive) | 43.4 µM (inactive) | 17.5 µM (inactive) | 43.6 µM (inactive) | 60 µM (inactive) | 34.1 µM (inactive) | 32.1 µM (inactive) | 19.2 µM (inactive)
